Measurements published in patent US9468209B2, “Method for eradicating weeds with derivatives of 3-acetyl-5-sec-butyl-4-hydroxy-3-pyrrolin-2-one” (priority 2012, dated 2016).

Columns and labels:
photosystem II = assay: PSII oxygen evolution / electron transfer activity of treated Crofton weed leaves; assay type: biochemical; conditions: 50 μg/mL, strong light 12 hours
Procedure, shortened: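 Cleaned Crofton weed leaves had 50 μg/mL compound (methanol diluted in water) applied to the underside, with matching methanol–water control. Vacuum 15 min at 25° C, then 12 h strong light (400 μM m^−2 s^−1) before measuring Hill reaction, electron transfer and chlorophyll fluorescence; four leaves per treatment, tested three times.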

Crofton weed [1] = assay: Spray on leaves and stems of three-leaf-stage Crofton weed seedlings grown in pots in a greenhouse; assay type: in vivo; parameters: key: 4: Plant completely dead; 3: Two thirds of the plant stems and leaves dried out; 2: Half of the plant stems and leaves dried out; 1: One third of the plant stems and leaves dried out; 0: No damage at all; conditions: 50 μg/mL spray, assessed two days later
Method: Compounds 1, 2, 3, and 40 were separately dissolved in a small amount of methanol. The solutions were then diluted with distilled water to a concentration of 50 μg/mL. A mixture of methanol and water in the same ratio as the sample solution was also prepared and used as control in the experiment. The solutions were sprayed on leaves and stems of three-leaf-stage Crofton weed seedlings. All the plants were grown in pot in a greenhouse. The leaves were properly wet by the solutions for consistency and the treatment was repeated 3 times. The measurement of the plant damage was calculated by the formula: Damage Index=Σ(damage level×number of plants)×100/4/number of plants in each treatment.

Crofton weed [2] = assay: Needle puncture test on Crofton weed with washes recovered from compound-treated soil; assay type: in vivo; conditions: after soil treatment (3 hours)
Method: Compounds 1, 2, 3, and 40 were dissolved in small amount of methanol and diluted with distilled water to concentration of 50 μg/mL. The solution was sprayed to the soil sample until the soil was wet but not overflows. After standing at room temperature for 3 hours, the soil sample was washed with water and methanol. The wash solution was collected and concentrated. Such process was repeated three times. The concentrated solutions were used for herbicidal activity test using the method of needle puncture on Crofton weed. Methanol water solution and pure water were used as control. The experiment for every sample was repeated six times. The spot diameters were measured with vernier caliper after the plant was kept under natural light at 25° C. for 24 hours (Table 11).

## CCCCC1NC(=O)C(C(C)=O)=C1O (stereo not drawn) [Compound 14]
Photosystem II
  PSII Activity of oxygen evolution: 34.01 uMO2/mgChlh

## CCCCCC1NC(=O)C(C(C)=O)=C1O (stereo not drawn) [Compound 15]
Photosystem II
  PSII Activity of oxygen evolution: 31.26 uMO2/mgChlh

## CCCCCCC1NC(=O)C(C(C)=O)=C1O (stereo not drawn) [Compound 16]
Photosystem II
  PSII Activity of oxygen evolution: 30.00 uMO2/mgChlh

## CCCC(Cl)C1NC(=O)C(C(C)=O)=C1O (stereo not drawn) [Compound 40]
Crofton weed [1]
  Damage level: 4
Crofton weed [2]; H2O wash
  Average diameter of the spot after 24 h, H2O wash: 0.336 ± 0.050 mm
Crofton weed [2]; Methanol wash
  Average diameter of the spot after 24 h, Methanol wash: 0.416 ± 0.024 mm
Photosystem II
  PSII Activity of oxygen evolution: 24.00 uMO2/mgChlh

## CCC(C)C1NC(=O)C(C(=O)CCF)=C1O (stereo not drawn) [Compound 44]
Photosystem II
  PSII Activity of oxygen evolution: 40.75 uMO2/mgChlh

## CCCC(C#N)C1NC(=O)C(=C(C)O)C1=O (stereo not drawn) [Compound 53]
Photosystem II
  PSII Activity of oxygen evolution: 32.12 uMO2/mgChlh
